Laboratory results taken from US20240245654A1, “ADJUNCTIVE D-CYCLOSERINE AUGMENTATION OF TRANSCRANIAL MAGNETIC STIMULATION (TMS) THERAPY FOR MAJOR DEPRESSIVE DISORDER” (MCGRX CORP., priority 2021, published 2024).
Entries after “also recorded” stand apart in the source; their conditions may differ.

Assays:
[1] = tested on: left primary motor cortex (iTBS synaptic plasticity); assay: Repeated spaced iTBS of motor cortex, MEP and stimulus response curve, placebo-controlled crossover trial in healthy individuals (NCT05081986); format: in vivo, human; conditions: n=20 healthy, vs placebo
Protocol: Methods: This experiment was a pre-registered randomized, double-blind, placebo-controlled crossover trial (NCT05081986). Twenty healthy individuals were randomly assigned to one of two experimental arms of the crossover study: a) Placebo-D-cycloserine and b) D-cycloserine-placebo. In the placebo arm, participants received one oral dose of 100 mg microcrystalline cellulose one hour prior to iTBS. In the D-cycloserine 100 mg arm, participants received one oral dose of 100 mg D-cycloserine one hour before ITBS. Participants attended the laboratory on two occasions to complete both arms of the crossover design. Time of arrival was standardized across visits, and visits were separated by at least seven days.
All TMS pulses were delivered using a neuro-navigated MagPro stimulator (X100 system, MagVenture, Denmark) with a biphasic Cool-B70 figure-eight coil. […] The peak-to-peak amplitude of MEPs were recorded from two surface electromyographic (EMG) electrodes placed on the right first dorsal interosseous muscle (FDI), with the ground electrode placed on the right styloid process. […]
TMS was delivered to the left primary motor cortex to identify the area that, when stimulated, elicited the largest peak-to-peak FDI MEP amplitude (the hotspot). […] The resting motor threshold (RMT) was determined as the lowest stimulator output, which elicited peak-to-peak MEP amplitudes≥0.05 mV in 5/10 trials. […]

[2] = tested on: motor cortex (iTBS synaptic plasticity); assay: Motor cortex iTBS, MEP and stimulus response curve, placebo-controlled crossover study in Major Depressive Disorder (NCT03937596); format: in vivo, human
[3] = tested on: treatment resistant major depressive disorder (MDD); assay: 4-week double-blind placebo-controlled RCT of iTBS+DCS in treatment resistant MDD: depression, CGI, anxiety, wellbeing outcomes; format: in vivo, human; conditions: for rate of clinical remission (MADRS≤10): iTBS+placebo 4.2%
Protocol: Methods: In this preregistered (NCT03937596) single site 4-week randomized double-blind placebo-controlled trial, fifty participants with treatment resistant MDD were randomized 1:1 to ITBS+Placebo or iTBS+D-Cycloserine (100 mg). Participants were asked to take the adjunct or placebo at least 60 minutes prior to daily iTBS treatments for the first two weeks, and iTBS continued without an adjunct for weeks three and four. We utilized a MagPro X100 stimulator (MagVenture, Denmark) and a COOL-B70 coil. Targeting of the left DLPFC involved surface anatomy and the Beam F3 method^30. Although anatomical and functional neuroimaging was collected as part of the study protocol, targeting utilizing surface anatomy was chosen to increase generalizability to clinical settings where neuroimaging derived targets are not feasible. This target was registered to either the participant's anatomical MRI or to a template brain for those who could not complete neuroimaging (Visor2, ANT Neuro, the Netherlands). Resting motor threshold (rMT) was determined using electromyographic (EMG) electrodes placed over the first dorsal interosseous muscle, with threshold determined as the stimulus intensity required to elicit a minimum of 5 out of 10 EMG responses of >50 uV.
Patients all received active-iTBS, consisting of a total of 600 pulses per session delivered in twenty trains of triplets at 50 Hz repeated at 5 Hz (2 s on 8 s off) at 80% rMT. Participants received daily treatments Monday through Friday for a total of 20 treatments.
The primary outcome was change in depressive symptoms as measured by the Montgomery Asberg Depression Rating Scale (MADRS) at the conclusion of treatment. Secondary outcomes included clinical response (≥50% improvement in MADRS), clinical remission (MADRS≤10), and clinical global impression (CGI).

[4] = tested on: MDD-related cognitive impairment; assay: RCT of iTBS+DCS in MDD: cognition (PDQ, THINC-it N-Back); format: in vivo, human; conditions: iTBS+DCS 100 mg vs iTBS+Placebo; listed as DCS
Protocol: The efficacy of 100 mg DCS as an adjunctive strategy to iTBS to reduce MDD-related cognitive impairment and/or improve cognition in MDD was be tested in the randomized controlled trial described in the above Example.
Participants completed the Cognitive Failures Questionnaire (CFQ31) and the Perceived Deficits Questionnaire (PDQ) as well as the THINC-it computerized neurocognitive battery at baseline and after treatment.

[5] = tested on: neurite density at the iTBS target site; assay: RCT of iTBS+DCS in MDD: NODDI diffusion MRI at iTBS target site; format: in vivo, human; conditions: iTBS+DCS treated participants; not in iTBS+Placebo; listed as DCS
From the text: Neurite Density and Dispersion Orientation Index (NODDI)^32 is an MRI tool that provides a proxy measure of neurite morphology and arborization that has been validated against histology in model species^33,34. While more commonly applied to white matter, NODDI has discriminating power in cortical gray matter in both health and disease^35-37. Neurite density metrics reflect the volume within neurites, whereas orientation dispersion metrics capture the tortuosity or complexity of neural processes, both of which are affected in MDD.
In the randomized placebo-controlled trial discussed in the Example above, diffusion magnetic resonance data to quantify Neurite Density and Dispersion Orientation Index (NODDI)^32 were acquired using a 3T General Electric Discovery MR750 scanner at the Seaman Family MR Research Center. This method provides a proxy measure of histopathological features in brain white and gray matter to describe neurite morphology and arborization.

[6] = tested on: suicidal ideation and suicide risk in MDD; assay: RCT of iTBS+DCS in MDD: suicidal ideation and death-implicit association test; format: in vivo, human; conditions: iTBS+DCS vs iTBS+Placebo, listed as DCS
From the text: Participants also completed a computerized neuropsychological test called the death-implicit association test that is associated with suicide attempts, both retrospectively and prospectively.

[7] = tested on: motor cortex (MEP facilitation after iTBS); conditions: healthy participants, described elsewhere; cited from earlier work
[8] = tested on: TMS-associated plasticity; conditions: low dose; cited from earlier work
tDCS plasticity = conditions: compared with tDCS alone; cited from earlier work

N[C@@H]1CONC1=O [D-cycloserine]
facilitation of MEP peak to peak amplitude after repeated spaced iTBS ([1]; 100 mg oral one hour before iTBS, two iTBS separated by an hour): not impacted | stimulus response curve change after iTBS ([1]; adjunctive 100 mg): significant and sustained facilitation | relationship between ΔAUC 90 min and ΔAUC NextDay of the SRC ([2]; D-cycloserine groups, placebo groups weak negative relationship): positively correlated; also recorded: positive relationship | MEP time course following iTBS ([2]; MDD participants n=12, 100 mg, vs placebo arm): did not impact | change in stimulus response curve the day following iTBS ([2]; MDD participants, 100 mg, compared with healthy-placebo and MDD-placebo): normalized | OR of clinical response ([3]; 2 weeks, iTBS+DCS vs iTBS+placebo, 95% CI: 1.41-21.03): 5.45 | rate of clinical remission (MADRS≤10) ([3]; 2 weeks): 17.4% | rate of clinical response (≥50% improvement in MADRS) ([3]; 2 weeks, iTBS+placebo 16.7%): 52.2% | OR of clinical remission ([3]; 4 weeks, iTBS+DCS vs iTBS+placebo, 95% CI: 1.68-129.52): 14.78 | OR of clinical response ([3]; 4 weeks, iTBS+DCS vs iTBS+placebo, 95% CI: 1.91-24.77): 6.88 | rate of clinical remission (MADRS≤10) ([3]; 4 weeks): 39.1% | rate of clinical response (≥50% improvement in MADRS) ([3]; 4 weeks, iTBS+placebo 29.2%): 73.9% | change in depressive symptoms (MADRS scores) ([3]; iTBS+DCS 100 mg vs iTBS+Placebo, mITT, 4 weeks, listed as DCS): significant improvement in depressive symptoms; also recorded: greater reductions in depressive symptoms | MADRS mean difference, per treatment analyses ([3]; iTBS+DCS vs iTBS+Placebo, 2 weeks, 95% CI: 0.43-7.51): 3.97 | MADRS mean difference, per treatment analyses ([3]; iTBS+DCS vs iTBS+Placebo, 4 weeks, 95% CI: 2.66-11.52): 7.09 | Hedge's g (MADRS change) ([3]; iTBS+DCS vs iTBS+Placebo, 95% CI: 0.34-1.62): 0.99 | CGI-Improvement scores ([3]; iTBS+DCS vs iTBS+Placebo, at 2 weeks and 4 weeks, listed as DCS): greater improvements on the clinical global impression scale; also recorded: greater improvement | mean difference on the MADRS ([3]; iTBS+DCS vs iTBS+Placebo, mITT, baseline to 4 weeks, 95% CI: 2.43-9.88, p=0.001): 6.15 | CGI-severity scale ([3]; iTBS+DCS vs iTBS+Placebo, p=0.0014, listed as DCS): greater improvements in clinical global impression severity scores | visual analog scale for overall wellbeing ([3]; iTBS+DCS vs iTBS+Placebo, p=0.018, listed as DCS): greater improvements in overall wellbeing; also recorded: greater improvement | self-reported anxiety symptoms (GAD-7) ([3]; iTBS+DCS vs iTBS+Placebo, p=0.035, listed as DCS): greater improvements in anxiety; also recorded: greater improvement | objective cognitive function, N-Back task of working memory [4]: significantly greater improvements; also recorded: significant improvements | subjective cognitive function (Perceived Deficits Questionnaire) [4]: significantly greater improvements; also recorded: significant improvements | neurite density at the target site (NODDI) [5]: increased neurite density; also recorded: Neurite density increases | suicidal ideation [6]: rapid resolution of suicidal ideation; also recorded: greater reductions in suicidal ideation | death-implicit association test performance ([6]; persisted when controlling for depressive symptom improvement): showed improvement; also recorded: greater reductions in scores | facilitation of MEPs after iTBS [7]: blunted facilitation of MEPs | short-term facilitation with high-frequency rTMS [8]: increases short-term facilitation | duration of sustained plasticity with transcranial direct current stimulation (tDCS plasticity): more than 12 hours
